For test [1], the target named is T1, BCDIN3D (Homo sapiens, UniProt Q7Z5W3).
T1 sequence (Q7Z5W3 1-292): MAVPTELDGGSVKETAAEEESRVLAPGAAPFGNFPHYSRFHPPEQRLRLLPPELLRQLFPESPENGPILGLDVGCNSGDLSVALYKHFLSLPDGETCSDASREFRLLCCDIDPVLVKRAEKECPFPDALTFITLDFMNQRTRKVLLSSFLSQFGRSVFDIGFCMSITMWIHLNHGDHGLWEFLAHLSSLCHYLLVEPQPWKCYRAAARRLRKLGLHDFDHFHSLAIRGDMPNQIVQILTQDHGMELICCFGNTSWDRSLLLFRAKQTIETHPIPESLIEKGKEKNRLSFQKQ
Put plainly: BCDIN3D IC50 RFMS (RapidFire) assay with mini-helix. Format: biochemical. Conditions: 25 nM enzyme. An outline of the steps: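 25 nM enzyme preincubated 10 min at room temperature with compound (1% DMSO) in 25 mM Tris pH 8.0, 10 mM DTT, 1 mM EDTA, 0.03% BSA. Reaction started with 0.2 μM mini-helix plus 6 μM SAM, run 1 h at 37 °C, quenched with TCA; SAH product quantified by RapidFire MS against isotopic SAH standards.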

For test [2], the target named is T1, BCDIN3D. Description: BCDIN3D InCellPulse thermal stability assay in transfected A549 cells. Format: cell-based. Conditions: heat shock 58° C. 15 min. The protocol:
BCDIN3D InCellPulse™ Assay
The thermal stability assay was performed with lipofectamine 3000 transiently transfected A549 using the plasmid pICP-ePL-BCDIN3 Da. This plasmid encodes for BCDIN3D N-terminally fused to a Prolabel (ePL), complementing a split β-Galactosidase Enzyme System InCELL Pulse Technology (InCELL Hunter Detection Kit, DiscoverX/Eurofins, cat: 96-0079L). 20 μl A549 cells (1500 cell/well) were added with a multidrop device to compounds to a final DMSO concentration of 0.6% in 384-well polypropylene plate format in IMDM medium and pre-incubated with the compounds for 1 h at 37° C. and 5% CO2. Subsequently, a heat shock was applied to the entire sealed plate in a 58° C. water bath for 15 min. The plates were cooled to RT, spun down and 25 μl/well of EA Detection Solution at 3.3× (InCELL Hunter Detection Kit) was added per well. 21 μl of the mixture was added to a black 384-well measurement plate (Corning, PS, black, Flat Bottom, #3575), mix for 30 minutes on a plate shaker at RT. Finally, the luminescence was measured with a Perkin Elmer EnVision with 0.2 s measurement time in luminescence mode.

Where [3] appears, read: mini-helix 0.2 μM and SAM 6 μM as substrates, 1 hr at 37° C.
[4] abbreviates: A549 cells transiently transfected with ePL-BCDIN3D, 1 h pre-incubation.
Where [5] appears, read: mini-helix substrate 0.2 μM, SAM 6 μM.
The mark [6] stands for this setting: transiently transfected A549 cells.

By IC50 is commonly meant the midpoint of a concentration-inhibition curve. Consider `Cc1nn(C)c2nc(NCC(C)(C)N)nc(NCc3ccc(-c4ccccc4)cc3)c12` [Compound 1.31, N6-(2-amino-2-methylpropyl)-N4-({[1,1′-biphenyl]-4-yl}methyl)-1,3-dimethyl-1H-pyrazolo[3,4-d]pyrimidine-4,6-diamine], for which the IC50 at BCDIN3D [1] (setting [3]) was 950 nM; against BCDIN3D [2] (setting [4]), 814 nM.

With `Cn1ncc2c(NC(C)(C)C)nc(NCC(N)C3CCCCC3)nc21` (stereo not shown) [Compound 3.10, N6-(2-amino-2-cyclohexyl-ethyl)-N4-tert-butyl-1-methyl-pyrazolo[3,4-d]pyrimidine-4,6-diamine], the IC50 at BCDIN3D [1] (setting [5]) worked out at 228 nM; on BCDIN3D [2] (setting [6]), 123 nM.

Regarding `Cn1ncc2c(NC(C)(C)C)nc(NCC(N)c3ccncc3)nc21` (stereo not shown) [Compound 5.26, N6-[2-amino-2-(4-pyridyl)ethyl]-N4-tert-butyl-1-methyl-pyrazolo[3,4-d]pyrimidine-4,6-diamine], the IC50 came out at 3390 nM on BCDIN3D [1] (setting [5]) and 5570 nM against BCDIN3D [2] (setting [6]).

Consider `Cn1ncc2c(NCC3CC3)nc(NCC(N)c3ccccc3)nc21` (stereo not shown) [Compound 4.56, 6-N-(2-amino-2-phenylethyl)-4-N-(cyclopropylmethyl)-1-methylpyrazolo[3,4-d]pyrimidine-4,6-diamine], for which the IC50 on BCDIN3D [1] (setting [5]) is 3470 nM; against BCDIN3D [2] (setting [6]), 7270 nM.

Take `Cc1ccc(CNc2nc(NC[C@@H](C)N)nc3c2cnn3C)cc1Cl` [Compound 3.04, 6-N-[(2R)-2-aminopropyl]-4-N-[(3-chloro-4-methylphenyl)methyl]-1-methylpyrazolo[3,4-d]pyrimidine-4,6-diamine]: the IC50 at BCDIN3D [1] (setting [5]) came out at 665 nM; against BCDIN3D [2] (setting [6]), 1450 nM.

Take `CNc1nc(NCC(N)c2ccc(C#N)cc2)nc2c1cnn2C` (stereo not shown) [Compound 5.21, 4-[1-amino-2-[[1-methyl-4-(methylamino)pyrazolo[3,4-d]pyrimidin-6-yl]amino]ethyl]benzonitrile]: the figures for the IC50 against BCDIN3D [1] (setting [5]) and against BCDIN3D [2] (setting [6]) were 3860 nM and 11100 nM, respectively.

As to `COC1CC(Nc2nc(NC[C@H](N)c3ccccc3)nc3c2cnn3C)C1` (stereo partly drawn) [Compound 4.92, N6-[(2R)-2-amino-2-phenyl-ethyl]-N4-(3-methoxycyclobutyl)-1-methyl-pyrazolo[3,4-d]pyrimidine-4,6-diamine], the results for the IC50 against BCDIN3D [1] (setting [5]) and at BCDIN3D [2] (setting [6]) were 343 nM and 461 nM, respectively.

With `COc1ccc(Nc2nc(NCCN)nc3c2cnn3C)cc1Cl` [Compound 1.21, N6-(2-aminoethyl)-N4-(3-chloro-4-methoxyphenyl)-1-methyl-1H-pyrazolo[3,4-d]pyrimidine-4,6-diamine], the half-inhibitory concentration (IC50) against BCDIN3D [1] (setting [3]) came out at 1150 nM; against BCDIN3D [2] (setting [4]) it was 8070 nM.

Consider `Cn1ncc2c(NC(C)(C)C)nc(NC[C@H](N)c3ccccc3)nc21` [Compound 4.53, 6-N-[(2R)-2-amino-2-phenylethyl]-4-N-tert-butyl-1-methylpyrazolo[3,4-d]pyrimidine-4,6-diamine], for which the results for the IC50 at BCDIN3D [1] (setting [5]) and on BCDIN3D [2] (setting [6]) were 118 nM and 282 nM, respectively.

Take `Cn1ncc2c(NC(C)(C)C)nc(NCC(N)c3ccccc3Cl)nc21` (stereo not shown) [Compound 5.10, N6-[2-amino-2-(2-chlorophenyl)ethyl]-N4-tert-butyl-1-methyl-pyrazolo[3,4-d]pyrimidine-4,6-diamine]: the 50% inhibitory concentration (IC50) at BCDIN3D [1] (setting [5]) was 495 nM; against BCDIN3D [2] (setting [6]), 462 nM.

On to `Cn1ncc2c(Nc3cccc(C(F)F)c3)nc(NCC3(N)CC3)nc21` [Compound 2.07, 6-N-[(1-aminocyclopropyl)methyl]-4-N-[3-(difluoromethyl)phenyl]-1-methylpyrazolo[3,4-d]pyrimidine-4,6-diamine], for which the IC50 against BCDIN3D [1] (setting [5]) came to 443 nM; at BCDIN3D [2] (setting [6]), 4100 nM.

For `Cn1ncc2c(NC3(C)CC(F)(F)C3)nc(NC[C@H](N)c3ccccc3)nc21` [Compound 4.86, N6-[(2R)-2-amino-2-phenyl-ethyl]-N4-(3,3-difluoro-1-methyl-cyclobutyl)-1-methyl-pyrazolo[3,4-d]pyrimidine-4,6-diamine], the IC50 turned out to be 1600 nM at BCDIN3D [1] (setting [5]) and 1450 nM on BCDIN3D [2] (setting [6]).

For `Cn1ncc2c(NC34CC(F)(C3)C4)nc(NCC3(N)CC3)nc21` [Compound 2.43, N6-[(1-aminocyclopropyl)methyl]-N4-{3-fluorobicyclo[1.1.1]pentan-1-yl}-1-methyl-1H-pyrazolo[3,4-d]pyrimidine-4,6-diamine], the figures for the IC50 at BCDIN3D [1] (setting [5]) and at BCDIN3D [2] (setting [6]) were 2790 nM and 5940 nM, respectively.

Turning to `CC(C)Nc1nc(NCC(N)c2ccccc2)nc2c1cnn2C` (stereo not shown) [Compound 4.46, 6-N-(2-amino-2-phenylethyl)-1-methyl-4-N-propan-2-ylpyrazolo[3,4-d]pyrimidine-4,6-diamine], the values for the IC50 against BCDIN3D [1] (setting [5]) and on BCDIN3D [2] (setting [6]) were 501 nM and 1130 nM, respectively.

For `Cn1ncc2c(Nc3ccc(C(F)(F)F)nc3)nc(NCC(C)(N)c3ccccc3)nc21` (single isomer, unassigned) [Compound 7.15], the IC50 turned out to be 38.1 nM against BCDIN3D [1] (setting [3]) and 133 nM against BCDIN3D [2] (setting [4]).

As to `Cn1ncc2c(NC3CC(Cl)(Cl)C3)nc(NC[C@H](N)c3ccccc3)nc21` [Compound 4.93, N6-[(2R)-2-amino-2-phenyl-ethyl]-N4-(3,3-dichlorocyclobutyl)-1-methyl-pyrazolo[3,4-d]pyrimidine-4,6-diamine], the IC50 at BCDIN3D [1] (setting [5]) was determined as 25.8 nM; on BCDIN3D [2] (setting [6]), 72 nM.

`Cn1ncc2c(NCc3ccc(C(F)(F)F)nc3)nc(NCC(N)c3ccccc3)nc21` (stereo not shown) [Compound 4.08, 6-N-(2-amino-2-phenylethyl)-1-methyl-4-N-[[6-(trifluoromethyl)pyridin-3-yl]methyl]pyrazolo[3,4-d]pyrimidine-4,6-diamine]: the IC50 on BCDIN3D [1] (setting [5]) is 1080 nM; at BCDIN3D [2] (setting [6]), 2950 nM.

For the molecule `Cn1ncc2c(NC34CC(C3)C4)nc(NC[C@H](N)c3ccccc3)nc21` [Compound 4.66, N6-[(2R)-2-amino-2-phenyl-ethyl]-N4-(3-bicyclo[1.1.1]pentanyl)-1-methyl-pyrazolo[3,4-d]pyrimidine-4,6-diamine], the IC50 came out at 128 nM at BCDIN3D [1] (setting [5]) and 137 nM against BCDIN3D [2] (setting [6]).

For `CCC(C)(C)Nc1nc(NC[C@H](N)c2ccccc2)nc2c1cnn2C` [Compound 4.101, N6-[(2R)-2-amino-2-phenyl-ethyl]-N4-(1,1-dimethylpropyl)-1-methyl-pyrazolo[3,4-d]pyrimidine-4,6-diamine], the 50% inhibitory concentration (IC50) is 463 nM at BCDIN3D [1] (setting [5]) and 330 nM against BCDIN3D [2] (setting [6]).

On to `Cn1ncc2c(NC3CC3)nc(NC[C@H](N)c3ccccc3)nc21` [Compound 7.04, N6-[(2R)-2-amino-2-phenyl-ethyl]-N4-cyclopropyl-1-methyl-pyrazolo[3,4-d]pyrimidine-4,6-diamine], for which the IC50 is 3910 nM against BCDIN3D [1] (setting [3]) and 2970 nM on BCDIN3D [2] (setting [4]).

For `CNc1nc(NC[C@@](C)(N)c2ccccc2)nc2c1cnn2C` (single isomer, unassigned) [Compound 7.10], the IC50 was 7650 nM at BCDIN3D [1] (setting [3]) and 10800 nM on BCDIN3D [2] (setting [4]).

Turning to `Cn1ncc2c(Nc3ccc(Cl)cc3F)nc(NCC3(N)CC3)nc21` [Compound 2.15, 6-N-[(1-aminocyclopropyl)methyl]-4-N-(4-chloro-2-fluorophenyl)-1-methylpyrazolo[3,4-d]pyrimidine-4,6-diamine], the IC50 against BCDIN3D [1] (setting [5]) was found to be 446 nM; against BCDIN3D [2] (setting [6]) it was 1630 nM.

For the molecule `Cn1ncc2c(NCC(F)F)nc(NC[C@H](N)c3ccccc3)nc21` [Compound 4.73, N6-[(2R)-2-amino-2-phenyl-ethyl]-N4-(2,2-difluoroethyl)-1-methyl-pyrazolo[3,4-d]pyrimidine-4,6-diamine], the IC50 turned out to be 528 nM against BCDIN3D [1] (setting [5]) and 412 nM against BCDIN3D [2] (setting [6]).

Turning to `CCOc1nc(NCC(N)c2ccccc2)nc2c1cnn2C` (stereo not shown) [Compound 6.01, N′-(4-Ethoxy-1-methylpyrazolo[3,4-d]pyrimidin-6-yl)-1-phenylethane-1,2-diamine], the half-inhibitory concentration (IC50) is 2510 nM against BCDIN3D [1] (setting [3]) and 6610 nM at BCDIN3D [2] (setting [4]).

On to `Cc1nn(C)c2nc(NCC(N)c3ccccc3)nc(Nc3ccc(C(F)(F)F)cc3)c12` (stereo not shown) [Compound 4.18, 6-N-(2-amino-2-phenylethyl)-1,3-dimethyl-4-N-[4-(trifluoromethyl)phenyl]pyrazolo[3,4-d]pyrimidine-4,6-diamine], for which the IC50 against BCDIN3D [1] (setting [5]) is 288 nM; against BCDIN3D [2] (setting [6]), 270 nM.

`COC[C@@H](C)Nc1nc(NC[C@H](N)c2ccccc2)nc2c1cnn2C` [Compound 4.117, N6-[(2R)-2-amino-2-phenyl-ethyl]-N4-[(1R)-2-methoxy-1-methyl-ethyl]-1-methyl-pyrazolo[3,4-d]pyrimidine-4,6-diamine]: the IC50 at BCDIN3D [1] (setting [5]) stood at 783 nM; against BCDIN3D [2] (setting [6]), 608 nM.

(Values after patent US20220370453A1 (Storm Therapeutics Ltd, priority 2019, published 2022).)
